Assay results: patent publication US5387610A, “Peptide derivatives of collagenase inhibitor” (Research Corporation Technologies, Inc., priority 1992, dated 1995)
Several values for one entry are separate records, joined by “and”; a condition that tells them apart may be missing. Identical values can stand only once.

Key:
[1] = target: T1, Porcine synovial collagenase (Sus scrofa, UniProt P21692); experiment: Porcine synovial collagenase activity with type I (calf skin) collagen, gel densitometry (PSC/CSC); format: biochemical; details: acid-soluble calf skin collagen 0.8 μM, 35° C., pH 7.7; a range means 50% inhibition lay between the values; successive lines per compound = diastereomers, higher C18 mobility first
T1 construct: purified porcine synovial collagenase; from tissue; host or cells: pig synovium (synovial enzyme, purified)
T1 sequence (P21692 100-469): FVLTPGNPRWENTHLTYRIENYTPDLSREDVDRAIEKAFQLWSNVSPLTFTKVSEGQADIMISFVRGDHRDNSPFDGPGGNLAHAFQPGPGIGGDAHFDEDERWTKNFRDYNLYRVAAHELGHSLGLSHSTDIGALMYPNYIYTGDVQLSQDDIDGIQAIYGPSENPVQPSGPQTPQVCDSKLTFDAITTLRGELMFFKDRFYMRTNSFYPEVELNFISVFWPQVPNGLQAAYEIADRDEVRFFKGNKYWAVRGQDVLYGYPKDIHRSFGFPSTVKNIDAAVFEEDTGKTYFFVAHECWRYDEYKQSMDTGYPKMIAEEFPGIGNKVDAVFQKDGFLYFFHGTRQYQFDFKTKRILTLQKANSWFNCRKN
Procedure: Porcine synovial collagenase activity (PSC) was measured with type I collagen essentially as described by Darlak et al. (1990). Varying amounts of inhibitor were added to the acid-soluble calf skin collagen (0.8 μM) at 35° C. in 0.05M tris-HCl, 0.2M NaCl, 5 mM CaCl2, 0.25M glucose, pH 7.7. Collagen degradation was initiated by adding purified porcine synovial collagenase and the reactions were stopped by the addition of an equal volume of sample dilution buffer (Laemmli, 1970) followed by boiling for 2-3 min. Undegraded collagen was resolved from its degradation products by polyacrylamide slab gel electrophoresis as described by Laemmli (1970). The gels were fixed in isopropanol/acetic acid/water (100:40:300 v/v) and then stained with 1% Coomassie Blue R-250 in fixing solution. After destaining, the percentage of α1 chain converted to the corresponding TC fragment was estimated by densitometry using a Bio-Rad model 610 video densitometer. IC50 values were estimated from the dependence of the percent of collagen degraded on inhibitor concentration.

[2] = target: T2, pig synovial collagenase (Sus scrofa, UniProt P21692); experiment: Pig synovial collagenase with fluorogenic substrate FS-7 (PSC/FS-7); format: biochemical; details: substrate Dnp-Pro-Leu-Gly-Leu-Trp-Ala-D-Arg-NH2; successive lines per compound = diastereomers, higher C18 mobility first
T2 construct: purified porcine synovial collagenase; from tissue; host or cells: pig synovium (synovial enzyme, purified)
T2 sequence (P21692 100-469): T1 sequence (P21692 100-469)
Procedure: [The source words this procedure for another target and reports this target under the same test.] Recombinant human fibroblast collagenase (rHFC) and porcine synovial gelatinase (PSG) were assayed at 37° C. by the procedure of Stack and Gray (1989). The fluorogenic metalloproteinase substrate Dnp-Pro-Leu-Gly-Leu-Trp-Ala-D-Arg-NH2 was dissolved at an initial concentration of 10 μM in 0.05M tris-HCl, 0.2M NaCl, 5 mM CaCl2, pH 7.7. Hydrolysis of the substrate at the Gly-Leu bond results in an increase in fluorescence that was monitored using an SLM-500C spectrofluorometer with excitation at 280 nm and emission at 346 nm. The reaction was initiated by addition of the enzyme; after determining the initial rate of substrate hydrolysis an aliquot of inhibitor was added and the inhibited rate redetermined. For lower affinity inhibitors (IC50>>[E0 ], where E0 is the enzyme concentration), inhibitor potencies were determined from plots of log (A0 /Ai-1) vs. log [Inhibitor], where A0 is the activity measured in the absence of inhibitor and Ai is that measured in the presence of inhibitor at concentration i (Ambrose et al., 1950). For high affinity inhibitors (IC50 =[E0 ]) only an upper limit of inhibitor potency could be estimated (Dixon and Webb, 1979).

Compound	IC50 [1]	IC50 [2] [µM]
CC(C)CC(C(=O)N[C@@H](Cc1ccccc1)C(=O)N[C@@H](C)C(N)=O)C(C)C(=O)NO (single isomer, unassigned) [Compound 16, H4[ONHCOCH(CH3)]--DL--Leu Phe Ala--NH2]	1 µM and > 3 µM	
H4[ONHCO]--DL--Leu Hal Ala--NH2 [Compound 5]	25 to 30 µM	21
H4[ONHCO]--DL--Leu I'-Hal--NH2 [Compound 7]	300 to 500 µM	280
H4[ONHCO]--DL--Leu Phe--NH2 [Compound 1]	250 µM	700
H4[ONHCO]--DL--Leu Trp--NH2 [Compound 2]	180 µM	370
HO--NH--CO--CH2 --CH(CH2 CH(CH3)2 --CO--Nal--Pro--NH2 [Compound 12]	1 to 3 µM	1.1
